Common to all, as to format: cell-based
For test [1], the target named is von Hippel-Lindau disease tumor suppressor/Cyclin-dependent kinase 6 (Homo sapiens, UniProt P40337+Q00534). Description: PROTAC activity at VHL/CDK6 in human MV4-11 cells assessed as induction of CDK6 degradation by Western blot analysis.
Test [2] addresses von Hippel-Lindau disease tumor suppressor/Cyclin-dependent kinase 6 (Homo sapiens) (UniProt Q00534+P40337). Briefly: PROTAC activity at VHL/CDK6 in human MV4-11 cells assessed as CDK6 degradation by measuring maximal efficacy by Western blot analysis.
In test [3] the target is von Hippel-Lindau disease tumor suppressor/Leucine-rich repeat serine/threonine-protein kinase 2 (Homo sapiens) (UniProt Q5S007+P40337). Description: PROTAC activity at VHL/LRRK2 in human MV4-11 cells assessed as LRRK2 degradation by measuring maximal efficacy by Western blot analysis relative to control.
In test [4] the target is von Hippel-Lindau disease tumor suppressor/Leucine-rich repeat serine/threonine-protein kinase 2 (Homo sapiens, UniProt P40337+Q5S007). Briefly: PROTAC activity at VHL/LRRK2 in human MV4-11 cells assessed as induction of LRRK2 degradation by Western blot analysis. Background: A western blot detects proteins with antibodies after separation by electrophoresis.
In test [5] the target is von Hippel-Lindau disease tumor suppressor/Bromodomain-containing protein 4 (Homo sapiens, UniProt O60885+P40337). Description: PROTAC activity in VHL/BRD4 in human MV4-11 cells assessed as induction of BRD4 degradation by Western blot analysis.
Test [6] addresses T1, von Hippel-Lindau disease tumor suppressor/Receptor-type tyrosine-protein kinase FLT3 (Homo sapiens, UniProt P36888+P40337). Description: PROTAC activity at VHL/FLT3 in human MV4-11 cells assessed as induction of FLT3 degradation by Western blot analysis.
Target sequence in this assay (P36888 whole entry): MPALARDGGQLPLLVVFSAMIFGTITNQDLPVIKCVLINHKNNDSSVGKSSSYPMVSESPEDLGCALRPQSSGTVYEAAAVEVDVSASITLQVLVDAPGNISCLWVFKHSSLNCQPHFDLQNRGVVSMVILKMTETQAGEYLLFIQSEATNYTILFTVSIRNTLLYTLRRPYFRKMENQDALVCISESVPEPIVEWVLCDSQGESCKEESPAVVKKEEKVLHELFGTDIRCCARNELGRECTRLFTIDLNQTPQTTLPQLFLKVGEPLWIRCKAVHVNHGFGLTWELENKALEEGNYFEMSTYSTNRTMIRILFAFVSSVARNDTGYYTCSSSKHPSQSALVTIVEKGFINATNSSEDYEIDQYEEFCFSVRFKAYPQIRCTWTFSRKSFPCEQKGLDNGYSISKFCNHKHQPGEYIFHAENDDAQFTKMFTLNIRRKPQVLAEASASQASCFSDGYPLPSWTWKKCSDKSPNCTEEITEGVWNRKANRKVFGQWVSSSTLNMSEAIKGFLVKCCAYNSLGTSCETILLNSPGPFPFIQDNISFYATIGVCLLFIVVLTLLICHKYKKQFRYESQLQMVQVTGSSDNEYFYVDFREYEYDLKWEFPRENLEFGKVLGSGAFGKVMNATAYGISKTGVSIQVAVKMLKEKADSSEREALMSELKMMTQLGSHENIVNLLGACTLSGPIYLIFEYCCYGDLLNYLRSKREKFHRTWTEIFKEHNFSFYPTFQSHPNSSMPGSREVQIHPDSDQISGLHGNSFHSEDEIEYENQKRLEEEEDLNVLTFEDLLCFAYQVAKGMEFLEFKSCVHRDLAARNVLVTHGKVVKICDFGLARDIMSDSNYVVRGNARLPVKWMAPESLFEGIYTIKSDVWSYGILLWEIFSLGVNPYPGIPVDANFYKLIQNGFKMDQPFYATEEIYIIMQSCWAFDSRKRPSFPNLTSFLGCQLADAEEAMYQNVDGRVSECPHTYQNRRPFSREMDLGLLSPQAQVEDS
Target sequence in this assay (P40337 whole entry): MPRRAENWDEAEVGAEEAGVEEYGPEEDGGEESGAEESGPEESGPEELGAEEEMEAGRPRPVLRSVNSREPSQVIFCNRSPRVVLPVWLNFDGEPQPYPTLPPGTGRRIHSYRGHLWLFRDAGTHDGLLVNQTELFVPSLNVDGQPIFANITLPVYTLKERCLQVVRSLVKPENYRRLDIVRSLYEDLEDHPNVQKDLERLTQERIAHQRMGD
Test [7] addresses T1, von Hippel-Lindau disease tumor suppressor/Receptor-type tyrosine-protein kinase FLT3. Description: PROTAC activity at VHL/FLT3 in human MV4-11 cells assessed as FLT3 degradation by measuring maximal efficacy by Western blot analysis relative to control.
Target sequence in this assay (P36888 27-993 limits assumed): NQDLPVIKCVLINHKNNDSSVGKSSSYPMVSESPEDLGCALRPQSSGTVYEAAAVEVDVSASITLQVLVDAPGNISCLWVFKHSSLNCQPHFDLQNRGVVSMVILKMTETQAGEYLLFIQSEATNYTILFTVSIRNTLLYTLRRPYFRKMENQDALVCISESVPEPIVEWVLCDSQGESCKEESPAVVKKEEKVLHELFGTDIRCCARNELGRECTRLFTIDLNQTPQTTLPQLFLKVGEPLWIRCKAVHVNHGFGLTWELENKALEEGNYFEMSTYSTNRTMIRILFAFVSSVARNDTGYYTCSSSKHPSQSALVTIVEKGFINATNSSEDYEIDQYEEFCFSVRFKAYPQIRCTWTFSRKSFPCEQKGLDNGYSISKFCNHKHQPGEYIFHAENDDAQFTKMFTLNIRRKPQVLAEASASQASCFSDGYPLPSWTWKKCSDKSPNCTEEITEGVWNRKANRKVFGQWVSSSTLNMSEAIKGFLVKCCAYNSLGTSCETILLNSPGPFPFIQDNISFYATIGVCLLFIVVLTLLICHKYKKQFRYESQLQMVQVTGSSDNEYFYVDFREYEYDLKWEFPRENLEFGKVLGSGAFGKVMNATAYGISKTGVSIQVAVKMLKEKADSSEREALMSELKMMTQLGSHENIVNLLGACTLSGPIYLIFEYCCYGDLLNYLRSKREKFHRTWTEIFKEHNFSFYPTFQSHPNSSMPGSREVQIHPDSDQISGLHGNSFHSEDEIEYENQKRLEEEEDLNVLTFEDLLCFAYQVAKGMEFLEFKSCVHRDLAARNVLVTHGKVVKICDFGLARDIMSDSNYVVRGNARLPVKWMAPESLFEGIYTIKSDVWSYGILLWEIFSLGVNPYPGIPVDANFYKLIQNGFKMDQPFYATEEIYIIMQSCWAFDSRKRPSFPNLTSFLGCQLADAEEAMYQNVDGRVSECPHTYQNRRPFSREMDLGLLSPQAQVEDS
Target sequence in this assay (P40337 whole entry partner): as the sequence (P40337 whole entry) above

pEC50: −log10 of the molar value.

Chain of von Hippel-Lindau disease tumor suppressor/Leucine-rich repeat serine/threonine-protein kinase 2 (Q5S007 whole entry): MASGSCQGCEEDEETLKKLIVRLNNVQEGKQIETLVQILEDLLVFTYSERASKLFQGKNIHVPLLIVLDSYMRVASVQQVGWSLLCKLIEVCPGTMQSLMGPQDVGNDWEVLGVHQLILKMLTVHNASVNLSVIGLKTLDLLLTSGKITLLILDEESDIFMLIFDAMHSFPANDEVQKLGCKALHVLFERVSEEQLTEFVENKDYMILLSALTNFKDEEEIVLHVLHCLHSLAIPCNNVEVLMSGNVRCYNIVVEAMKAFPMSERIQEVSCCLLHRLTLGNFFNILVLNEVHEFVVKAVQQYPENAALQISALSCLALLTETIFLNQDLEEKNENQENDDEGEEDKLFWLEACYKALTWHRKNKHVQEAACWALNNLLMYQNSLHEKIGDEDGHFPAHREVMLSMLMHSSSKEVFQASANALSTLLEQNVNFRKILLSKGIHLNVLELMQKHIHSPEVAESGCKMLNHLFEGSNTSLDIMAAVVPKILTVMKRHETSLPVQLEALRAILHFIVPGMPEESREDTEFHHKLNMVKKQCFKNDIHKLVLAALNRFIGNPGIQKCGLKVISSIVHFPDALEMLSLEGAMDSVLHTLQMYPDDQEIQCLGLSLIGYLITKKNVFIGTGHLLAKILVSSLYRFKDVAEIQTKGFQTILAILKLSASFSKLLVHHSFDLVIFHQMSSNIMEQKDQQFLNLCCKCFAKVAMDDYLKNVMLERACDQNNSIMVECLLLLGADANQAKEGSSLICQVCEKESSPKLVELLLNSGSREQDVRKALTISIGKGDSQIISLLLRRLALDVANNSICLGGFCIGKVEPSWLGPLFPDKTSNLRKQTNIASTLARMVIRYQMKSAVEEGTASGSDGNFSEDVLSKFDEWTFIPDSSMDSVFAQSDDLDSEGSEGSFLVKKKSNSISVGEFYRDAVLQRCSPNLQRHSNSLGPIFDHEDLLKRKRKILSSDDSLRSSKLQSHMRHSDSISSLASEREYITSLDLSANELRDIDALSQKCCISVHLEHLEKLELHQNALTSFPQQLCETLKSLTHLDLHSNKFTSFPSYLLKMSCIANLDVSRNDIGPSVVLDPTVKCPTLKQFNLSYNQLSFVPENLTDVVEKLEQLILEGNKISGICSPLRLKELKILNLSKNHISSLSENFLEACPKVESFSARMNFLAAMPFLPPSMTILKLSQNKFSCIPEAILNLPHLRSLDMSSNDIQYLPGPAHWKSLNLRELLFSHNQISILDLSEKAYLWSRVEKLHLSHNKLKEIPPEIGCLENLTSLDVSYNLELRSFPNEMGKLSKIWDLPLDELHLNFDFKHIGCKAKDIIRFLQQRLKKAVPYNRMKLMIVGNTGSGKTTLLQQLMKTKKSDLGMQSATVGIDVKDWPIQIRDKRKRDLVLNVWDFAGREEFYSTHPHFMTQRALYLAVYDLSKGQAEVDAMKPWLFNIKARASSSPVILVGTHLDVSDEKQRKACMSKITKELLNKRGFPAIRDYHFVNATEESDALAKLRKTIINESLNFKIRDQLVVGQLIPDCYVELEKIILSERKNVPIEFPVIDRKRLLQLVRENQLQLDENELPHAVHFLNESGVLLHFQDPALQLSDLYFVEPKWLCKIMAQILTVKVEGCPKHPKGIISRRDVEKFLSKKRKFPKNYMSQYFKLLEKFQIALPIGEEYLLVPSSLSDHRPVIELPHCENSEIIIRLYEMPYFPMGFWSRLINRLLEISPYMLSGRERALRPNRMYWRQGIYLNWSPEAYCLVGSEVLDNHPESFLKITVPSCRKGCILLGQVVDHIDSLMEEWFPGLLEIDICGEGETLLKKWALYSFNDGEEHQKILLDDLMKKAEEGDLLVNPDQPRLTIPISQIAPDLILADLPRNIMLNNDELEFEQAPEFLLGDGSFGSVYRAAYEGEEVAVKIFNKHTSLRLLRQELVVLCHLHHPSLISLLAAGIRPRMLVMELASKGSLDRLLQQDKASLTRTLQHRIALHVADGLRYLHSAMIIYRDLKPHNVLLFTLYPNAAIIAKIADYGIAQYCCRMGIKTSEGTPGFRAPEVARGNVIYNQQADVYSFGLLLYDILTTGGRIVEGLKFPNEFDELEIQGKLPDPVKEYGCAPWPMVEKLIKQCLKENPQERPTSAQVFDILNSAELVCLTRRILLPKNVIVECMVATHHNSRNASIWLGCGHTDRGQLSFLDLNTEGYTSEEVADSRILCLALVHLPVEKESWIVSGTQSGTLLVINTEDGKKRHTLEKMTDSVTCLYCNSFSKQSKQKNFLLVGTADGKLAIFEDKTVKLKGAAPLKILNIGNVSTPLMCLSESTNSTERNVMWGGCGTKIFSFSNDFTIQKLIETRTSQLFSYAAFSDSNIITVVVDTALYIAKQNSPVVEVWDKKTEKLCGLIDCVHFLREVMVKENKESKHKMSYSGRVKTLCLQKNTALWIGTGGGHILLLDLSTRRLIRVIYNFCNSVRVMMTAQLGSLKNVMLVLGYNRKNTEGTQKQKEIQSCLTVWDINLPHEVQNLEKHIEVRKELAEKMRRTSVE
Chain of von Hippel-Lindau disease tumor suppressor/Leucine-rich repeat serine/threonine-protein kinase 2 (P40337 whole entry): as the sequence (P40337 whole entry) above
Chain of von Hippel-Lindau disease tumor suppressor/Bromodomain-containing protein 4 (P40337 whole entry, looked up, other chains not shown): as the sequence (P40337 whole entry) above
Chain of von Hippel-Lindau disease tumor suppressor/Leucine-rich repeat serine/threonine-protein kinase 2 (Homo sapiens) (P40337 whole entry, looked up): as the sequence (P40337 whole entry) above
Chain of von Hippel-Lindau disease tumor suppressor/Leucine-rich repeat serine/threonine-protein kinase 2 (Homo sapiens) (Q5S007 whole entry, looked up): as the sequence (Q5S007 whole entry) above

In the case of `CC(=O)c1c(C)c2cnc(Nc3ccc(N4CCN(CCOCCOCCOc5cc(-c6scnc6C)ccc5CNC(=O)[C@@H]5C[C@@H](O)CN5C(=O)[C@@H](NC(=O)C5(F)CC5)C(C)(C)C)CC4)cn3)nc2n(C2CCCC2)c1=O`, the pEC50 in test [1] was 8.29. The Emax in test [2] amounted to 95%. For `CNc1nc(Nc2ccc(C(=O)N3CCN(C[C@H]4CC[C@H](CSC(C)(C)[C@H](NC(=O)C5(F)CC5)C(=O)N5C[C@H](O)C[C@H]5C(=O)NCc5ccc(-c6scnc6C)cc5)CC4)CC3)cc2OC)ncc1Cl`, the Emax in test [3] was greater than 82%. The pEC50 in test [4] was 7.82. For the compound `Cc1cc([C@H](C(=O)N2C[C@H](O)C[C@H]2C(=O)N[C@@H](C)c2ccc(-c3scnc3C#CCOCCOCCOCCOCCNC(=O)C[C@@H]3N=C(c4ccc(Cl)cc4)c4c(sc(C)c4C)-n4c(C)nnc43)cc2)C(C)C)on1`, in test [5], the negative logarithm of the EC50 (pEC50) was 7.80. Take `Cc1ncsc1-c1ccc(CNC(=O)[C@@H]2C[C@@H](O)CN2C(=O)[C@@H](NC(=O)CCOCCOCCOc2ccc3c(c2)sc2nc(-c4ccc(NC(=O)Nc5cc(C(C)(C)C)on5)cc4)cn23)C(C)(C)C)cc1`: in test [6], the pEC50 was greater than 8.30. For the same compound, in test [7], the Emax was 90%.

One may read the pEC50 as −log10 of the EC50, conventionally taken in molar units. For orientation: Emax means the size of the effect at its maximum, as opposed to the concentration needed.

For the origin of these results see ChEMBL document CHEMBL5380878, “A beginner's guide to current synthetic linker strategies towards VHL-recruiting PROTACs” (Bioorg Med Chem, 2023).
